The structures appear in SMILES notation. Some results are limits rather than exact numbers.

Consider 23 compounds from ChEMBL document CHEMBL4819125, “Synthesis and anti-proliferation activity of mogrol derivatives bearing quinoline and triazole moieties” (Bioorg Med Chem Lett, 2021).

Test [1] has as its system A549. In words: Antiproliferative activity against human A549 cells assessed as reduction in cell growth at 30 uM by CCK8 assay relative to control. The format is functional. In general terms: Tetrazolium assays rely on reduction of a dye to a coloured formazan, in cell work by metabolically active cells.
In test [2] the test system is NCI-H460. Briefly: Antiproliferative activity against human NCI-H460 cells assessed as reduction in cell growth at 30 uM by CCK8 assay relative to control. Format: functional.
The subject of test [3] is A549. In words: Antiproliferative activity against human A549 cells assessed as reduction in cell growth by CCK8 assay. The format is functional, cell-based.
Test [4] deals with NCI-H460. Briefly: Antiproliferative activity against human NCI-H460 cells assessed as reduction in cell growth by CCK8 assay. The format is functional, cell-based.

Turning to `C[C@H](CC[C@@H](O)C(C)(C)O)[C@H]1CC[C@@]2(C)[C@@H]3CC=C4[C@@H](Cc5cc6ccc(Br)cc6nc5C4(C)C)[C@]3(C)C(=O)C[C@]12C`, the inhibition at 30 µM in test [1] is 22%; in test [2], 1.65%.
`C[C@H](Cc1cnc2cc(Br)ccc2c1)[C@H]1CC[C@@]2(C)[C@@H]3CC=C4[C@@H](CC[C@H](O)C4(C)C)[C@]3(C)[C@H](O)C[C@]12C`: the inhibition at 30 µM was found to be 42.7% in test [1] and 0.71% in test [2].
With `C[C@H](CC[C@@H](O)C(C)(C)O)[C@H]1CC[C@@]2(C)[C@@H]3CC=C4[C@@H](Cc5cc6ccncc6nc5C4(C)C)[C@]3(C)C(=O)C[C@]12C`, the IC50 in test [3] is 14.3 µM; in test [4] it was 18.3 µM. For the same compound, the inhibition at 30 µM amounted to 95.2% in test [1] and 81.1% in test [2].
Consider `C[C@H](CC[C@@H](O)C(C)(C)O)[C@H]1CC[C@@]2(C)[C@@H]3CC=C4[C@@H](CC[C@H](O)C4(C)C)[C@]3(C)[C@H](OC(=O)Cn3cc(-c4ccsc4)nn3)C[C@]12C`, for which the IC50 in test [3] came to 6.27 µM. Further, the figures for the inhibition at 30 µM in test [1] and in test [2] were 90.5% and 44.9%, respectively.
Consider `C[C@H](Cc1cnc2cnccc2c1)[C@H]1CC[C@@]2(C)[C@@H]3CC=C4[C@@H](CC[C@H](O)C4(C)C)[C@]3(C)[C@H](O)C[C@]12C`, for which, in test [3], the half-maximal inhibitory concentration (IC50) amounted to 18.2 µM. The values for the inhibition at 30 µM in test [1] and in test [2] were 90.2% and 25.8%, respectively.
With `C[C@H](CCCOC(=O)Cn1cc(-c2ccsc2)nn1)[C@H]1CC[C@@]2(C)[C@@H]3CC=C4[C@@H](CC[C@H](O)C4(C)C)[C@]3(C)[C@H](O)C[C@]12C`, the IC50 in test [3] is 26.1 µM. The inhibition at 30 µM came to 90.5% in test [1] and 8.3% in test [2].
For `Cc1ccc(-c2cn(CC(=O)O[C@@H]3C[C@]4(C)[C@@H]([C@H](C)CC[C@@H](O)C(C)(C)O)CC[C@@]4(C)[C@@H]4CC=C5[C@@H](CC[C@H](O)C5(C)C)[C@@]43C)nn2)cc1`, the IC50 in test [3] was determined as 5.96 µM. Further, the inhibition at 30 µM in test [1] was 77.3%; in test [2], 40%.
For `C[C@H](CC[C@@H](O)C(C)(C)O)[C@H]1CC[C@@]2(C)[C@@H]3CC=C4[C@@H](CC[C@H](O)C4(C)C)[C@]3(C)[C@H](OC(=O)Cn3cc(C4CC4)nn3)C[C@]12C`, the IC50 in test [3] came to 19.8 µM. For the same compound, the inhibition at 30 µM in test [1] was found to be 92.9%; in test [2], 34.7%.
Turning to `C[C@H](CC[C@@H](O)C(C)(C)O)[C@H]1CC[C@@]2(C)[C@@H]3CC=C4[C@@H](Cc5cc6ccccc6nc5C4(C)C)[C@]3(C)C(=O)C[C@]12C`, the results for the IC50 in test [3] and in test [4] were 13.8 µM and 17.1 µM, respectively. For the same compound, the inhibition at 30 µM worked out at 94.3% in test [1] and 80.2% in test [2].
On the same counts, the results for `C[C@H](CC[C@@H](O)C(C)(C)O)[C@H]1CC[C@@]2(C)[C@@H]3CC=C4[C@@H](CC[C@H](O)C4(C)C)[C@]3(C)[C@H](O)C[C@]12C` [MOGROL] are 27.8 µM, above 100 µM, 62.9% and -13.2%.
Take `C[C@H](CCCOC(=O)Cn1cc(-c2ccccc2)nn1)[C@H]1CC[C@@]2(C)[C@@H]3CC=C4[C@@H](CC[C@H](O)C4(C)C)[C@]3(C)[C@H](O)C[C@]12C`: in test [3], the IC50 stood at 22.5 µM. The inhibition at 30 µM in test [1] came to 87.9%; in test [2] it was 7.56%.
`C[C@H](CC[C@@H](O)C(C)(C)O)[C@H]1CC[C@@]2(C)[C@@H]3CC=C4[C@@H](Cc5cc6ccc(Cl)cc6nc5C4(C)C)[C@]3(C)C(=O)C[C@]12C`: the inhibition at 30 µM in test [1] is 6.68%; in test [2], 2.18%.
For the compound `C[C@H](CCCOC(=O)Cn1cc(C2CC2)nn1)[C@H]1CC[C@@]2(C)[C@@H]3CC=C4[C@@H](CC[C@H](O)C4(C)C)[C@]3(C)[C@H](O)C[C@]12C`, the IC50 in test [3] was found to be 17.7 µM. The values for the inhibition at 30 µM in test [1] and in test [2] were 89.2% and 6.43%, respectively.
Consider `C[C@H](Cc1cnc2cc(Cl)ccc2c1)[C@H]1CC[C@@]2(C)[C@@H]3CC=C4[C@@H](CC[C@H](O)C4(C)C)[C@]3(C)[C@H](O)C[C@]12C`, for which the inhibition at 30 µM is 17.4% in test [1] and -1.18% in test [2].
Take `Cc1ccc(-c2cn(CC(=O)OCCC[C@@H](C)[C@H]3CC[C@@]4(C)[C@@H]5CC=C6[C@@H](CC[C@H](O)C6(C)C)[C@]5(C)[C@H](O)C[C@]34C)nn2)cc1`: in test [3], the IC50 was found to be 23.8 µM. Moreover, the values for the inhibition at 30 µM in test [1] and in test [2] were 88.4% and 10.9%, respectively.
`C[C@H](Cc1cnc2ccccc2c1)[C@H]1CC[C@@]2(C)[C@@H]3CC=C4[C@@H](CC[C@H](O)C4(C)C)[C@]3(C)[C@H](O)C[C@]12C`: the 50% inhibitory concentration (IC50) was determined as 19.2 µM in test [3] and 24.6 µM in test [4]. Besides, the inhibition at 30 µM came to 91.5% in test [1] and 69.9% in test [2].
Turning to `O=c1[nH]cc(F)c(=O)[nH]1` [FLUOROURACIL], the IC50 in test [3] was 1.65 µM; in test [4] it was 7.03 µM.
For `C[C@H](CC[C@@H](O)C(C)(C)O)[C@H]1CC[C@@]2(C)[C@@H]3CC=C4[C@@H](CC[C@H](O)C4(C)C)[C@]3(C)[C@H](OC(=O)Cn3cc(-c4ccccc4)nn3)C[C@]12C`, in test [3], the concentration for half-maximal inhibition (IC50) stood at 6.75 µM. Besides, the inhibition at 30 µM in test [1] is 83%; in test [2], 44.9%.
On the same counts, the results for `C[C@H](CC[C@@H](O)C(C)(C)O)[C@H]1CC[C@@]2(C)[C@@H]3CC=C4[C@@H](Cc5cc6cc(Cl)ccc6nc5C4(C)C)[C@]3(C)C(=O)C[C@]12C` are 12.9 µM, 84.1% and 13.1%.
In the same order, the values of `C[C@H](CC[C@@H](O)C(C)(C)O)[C@H]1CC[C@@]2(C)[C@@H]3CC=C4[C@@H](Cc5cc6cc(Br)ccc6nc5C4(C)C)[C@]3(C)C(=O)C[C@]12C` are 13.1 µM, 69.4% and 17%.
For the compound `C[C@H](Cc1cnc2ccc(Cl)cc2c1)[C@H]1CC[C@@]2(C)[C@@H]3CC=C4[C@@H](CC[C@H](O)C4(C)C)[C@]3(C)[C@H](O)C[C@]12C`, the inhibition at 30 µM was 10.6% in test [1] and -12.6% in test [2].
For `C[C@H](Cc1cnc2ccc(Br)cc2c1)[C@H]1CC[C@@]2(C)[C@@H]3CC=C4[C@@H](CC[C@H](O)C4(C)C)[C@]3(C)[C@H](O)C[C@]12C`, the figures for the inhibition at 30 µM in test [1] and in test [2] were 53.3% and -12.4%, respectively.
For `C[C@H](CC[C@@H](O)C(C)(C)O)[C@H]1CC[C@@]2(C)[C@@H]3CC=C4[C@@H](CC[C@H](O)C4(C)C)[C@]3(C)[C@H](OC(=O)Cn3cc(-c4ccc(C#N)cc4)nn3)C[C@]12C`, the IC50 in test [3] was 5.79 µM. Further, the values for the inhibition at 30 µM in test [1] and in test [2] were 76.7% and 20.5%, respectively.

For orientation: inhibition means the drop in the measured response relative to a control, in per cent. Usually IC50 stands for the concentration needed to halve the response being measured.
